{
  "source": "paper PMC11979273",
  "about": "“A phase I study to evaluate the safety, tolerability, and pharmacokinetics of HEC113995PA·H2O, a novel dual-acting serotonergic antidepressant, in healthy subjects” (Frontiers in Pharmacology, 2025)",
  "key": {"[1]": {"assay": "Food effect study, plasma pharmacokinetics", "format": "in vivo, human", "details": "for Cmax / MRT / half-life / Vd/F / Tmax: po, 20 mg; for Vd/F: read-out: Vz/F; for Tmax: N = 18, median (min, max)", "source_text": "A total of 18 healthy subjects of both genders, were assigned randomly to three sequences A, B, and C (n = 6). All subjects received HEC113995PA·H2O tablets, with a total of 3 times administered during the trial, once per cycle, and a washout period of ≥11 days. In sequence A, the order of administration was as follows: fasting, after a standard meal, and after a high-fat meal. In sequence B, the order of administration was after a standard meal, after a high-fat meal, and fasting. Sequence C subjects were administered in the following order: after a high-fat meal, fasting, and after a standard meal. During the fed periods, a single oral dose of HEC113995PA·H2O tablet 20 mg was administered within 30 min after consumption of a standard meal (total calories: approximately 600 kcal), or a high-fat, high-calorie meal (total calories: approximately 800 kcal–1,000 kcal, which derives about 150, 250, and 500–600 kcal from protein, carbohydrate, and fat, respectively). Serial blood samples were collected before and after each cycle for PK determination of plasma concentration and the evaluation of pharmacokinetic characteristics. Safety and tolerability were assessed on days 4 and 28.\nIn the first dose group of single ascending-dose study, PK blood samples were collected at 0.5 h before administration and 0.5, 1, 1.5, 2, 2.5, 3, 4, 5, 6, 8, 10, 12, 24, 36, 48, and 72 h after administration. In other SAD groups, MAD groups and food effect study, PK blood samples were collected at 0.5 h before administration, and 1, 2, 3, 4, 5, 6, 7, 8, 10, 12, 24, 48, 72, 96, 120 and 144 h after administration. Approximately 4 mL of venous blood was obtained from each collection and placed in a vacuum collection vessel containing K2EDTA anticoagulant. The blood was centrifuged and packed according to the instruction provided by the Biological Sample Detection and Analysis Unit. Briefly, all samples were centrifuged at 4°C, 1,500 g for 10 min within 0.5 h after blood collection. After centrifugation, the plasma was aliquoted into two cryogenic storage tubes. The first tube (Tube A) contained at least 0.8 mL of plasma for analytical testing, and the remaining plasma is allocated into the backup tube (Tube B). The plasma samples were stored at −80°C within 1 h after aliquoting for further analysis.\nThe concentration of HEC113995PA·H2O in human plasma samples (K2EDTA) was quantitatively analyzed using the LC-MS/MS method. Plasma samples (50 μL) were processed using protein precipitation with 5 μL deuterated internal standard (HEC124659) and 100 μL acetonitrile. The Shimadzu LCMS-8060 system coupled with a GL Sciences Inc. InertSustain AQ-C18 HP column (50 × 2.1 mm, 3 μm) achieved chromatographic separation through gradient elution using 0.04% TFA aqueous solution (pH 2.1) and acetonitrile at 0.4 mL/min. ESI-positive mode detection employed optimized parameters: 300°C interface temperature, 250°C DL temperature, 3 L/min nebulizer gas, and 400°C heating block temperature.\nUsing WinNonlin 7.0 for non-compartmental analysis (NCA), pharmacokinetic (PK) parameters were meticulously calculated based on the actual sampling times for plasma, urine, and fecal samples from each subject post-administration. These parameters encompassed a comprehensive range, including the area under the concentration–time curve (AUC), AUC from time zero (pre-dose) to the time of the last measurable concentration (AUC0-t), and AUC from time zero (pre-dose) to infinity (AUC0-∞). Additionally, maximum observed plasma concentration (Cmax), time to achieve maximum plasma concentration (Tmax), terminal elimination half-life (t1/2), elimination rate constant (Ke), apparent volume of distribution (Vd/F), clearance rate (CL/F), and mean residence time (MRT) were also determined. The AUC0-t and AUC0-∞ values were computed using the linear trapezoidal rule method. Tmax and Cmax were ascertained based on the actual observed data. […]"}, "[2]": {"assay": "Solubility in solvents", "format": "physicochemical"}, "[3]": {"target": "5-HT transporter (Homo sapiens, UniProt P31645)", "sequence (P31645 whole entry, species assumed)": "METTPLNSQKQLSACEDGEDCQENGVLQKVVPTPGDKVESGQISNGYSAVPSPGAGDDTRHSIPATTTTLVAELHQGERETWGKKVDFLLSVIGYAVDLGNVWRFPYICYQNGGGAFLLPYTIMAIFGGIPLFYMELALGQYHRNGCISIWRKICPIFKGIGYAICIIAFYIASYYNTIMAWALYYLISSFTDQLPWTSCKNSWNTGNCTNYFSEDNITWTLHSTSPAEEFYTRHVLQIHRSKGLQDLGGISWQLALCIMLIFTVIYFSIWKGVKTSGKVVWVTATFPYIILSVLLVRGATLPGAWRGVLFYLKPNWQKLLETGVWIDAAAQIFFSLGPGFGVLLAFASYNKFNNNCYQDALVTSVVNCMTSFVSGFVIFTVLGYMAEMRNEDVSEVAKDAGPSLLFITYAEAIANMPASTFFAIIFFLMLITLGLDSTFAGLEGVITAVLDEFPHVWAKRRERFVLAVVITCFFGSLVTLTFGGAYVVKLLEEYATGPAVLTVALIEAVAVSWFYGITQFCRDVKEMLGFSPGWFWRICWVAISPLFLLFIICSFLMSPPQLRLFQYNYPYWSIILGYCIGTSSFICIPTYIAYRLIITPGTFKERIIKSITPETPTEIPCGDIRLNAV", "assay": "In vitro affinity and antagonistic activity for the 5-HT transporter", "format": "binding", "details": "unpublished data"}, "[4]": {"target": "T1, 5-HT1A receptor (Homo sapiens, UniProt P08908)", "T1 sequence (P08908 1-422)": "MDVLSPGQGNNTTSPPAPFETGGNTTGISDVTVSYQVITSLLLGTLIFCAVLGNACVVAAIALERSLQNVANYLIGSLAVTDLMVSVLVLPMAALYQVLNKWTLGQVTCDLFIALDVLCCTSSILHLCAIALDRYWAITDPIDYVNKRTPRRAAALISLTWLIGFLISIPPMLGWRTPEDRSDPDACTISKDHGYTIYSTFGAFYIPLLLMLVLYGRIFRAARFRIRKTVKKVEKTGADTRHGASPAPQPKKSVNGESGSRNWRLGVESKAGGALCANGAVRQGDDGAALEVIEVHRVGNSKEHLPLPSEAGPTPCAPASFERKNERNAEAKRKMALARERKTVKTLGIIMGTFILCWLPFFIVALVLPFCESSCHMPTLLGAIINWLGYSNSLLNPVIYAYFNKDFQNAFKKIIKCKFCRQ", "assay": "5-HT1A receptor agonism (EC50, EMAX)", "format": "biochemical", "details": "in vitro; unpublished data"}, "[5]": {"system": "rats", "assay": "Behavioral despair models, rats", "format": "in vivo", "details": "single, multiple, and chronic administrations, unpublished data"}, "[6]": {"details": "both sexes, human, plasma, single oral 20 mg, fasted, N = 18, mean (SD)"}, "[7]": {"details": "both sexes, human, plasma, single oral 20 mg, fed with high-fat, high-calorie meal, N = 18, mean (SD)"}, "[8]": {"details": "both sexes, human, plasma, single oral 20 mg, fed with standard meal, N = 18, mean (SD)"}, "[9]": {"details": "single 20 mg tablet, fed vs fasted"}},
  "note": "Read-outs that look alike come from different tables or passages of the source.",
  "data": [
    {"smiles": "Cc1nc(-c2cnc(N3CCN(CCCc4c[nH]c5ccc(C#N)cc45)CC3)nc2)sc1C(N)=O", "note": "[HEC113995PA·H2O]", "values": [
      {"measurement": "Cmax", "setting": "[1]; [6]", "result": 63, "unit": "ng/mL"},
      {"measurement": "MRT", "setting": "[1]; [6]", "result": 38.3, "unit": "h"},
      {"measurement": "half-life", "setting": "[1]; [6]", "result": 29, "unit": "h"},
      {"measurement": "Vd/F", "setting": "[1]; [6]", "result": 447, "unit": "L"},
      {"measurement": "Tmax", "setting": "[1]; both sexes, human, plasma, single oral 20 mg, fasted", "result": 4, "unit": "h"},
      {"measurement": "Cmax", "setting": "[1]; [7]", "result": 117, "unit": "ng/mL"},
      {"measurement": "MRT", "setting": "[1]; [7]", "result": 35.8, "unit": "h"},
      {"measurement": "half-life", "setting": "[1]; [7]", "result": 30.5, "unit": "h"},
      {"measurement": "Vd/F", "setting": "[1]; [7]", "result": 297, "unit": "L"},
      {"measurement": "Tmax", "setting": "[1]; both sexes, human, plasma, single oral 20 mg, fed with high-fat, high-calorie meal", "result": 5, "unit": "h"},
      {"measurement": "Cmax", "setting": "[1]; [8]", "result": 106, "unit": "ng/mL"},
      {"measurement": "MRT", "setting": "[1]; [8]", "result": 35.4, "unit": "h"},
      {"measurement": "half-life", "setting": "[1]; [8]", "result": 29.5, "unit": "h"},
      {"measurement": "Vd/F", "setting": "[1]; [8]", "result": 298, "unit": "L"},
      {"measurement": "Tmax", "setting": "[1]; both sexes, human, plasma, single oral 20 mg, fed with standard meal", "result": 5, "unit": "h"},
      {"measurement": "AUC(0-inf)", "setting": "[1]; [6]", "result": 1960, "unit": "ng·h/mL"},
      {"measurement": "AUC(0-t)", "setting": "[1]; [6]", "result": 1860, "unit": "ng·h/mL"},
      {"measurement": "food effect, increases in exposure parameters", "setting": "[1]; discussion summary", "result": "52%–93"},
      {"measurement": "food impact on Tmax and t1/2", "setting": "[1]; single 20 mg tablet", "result": "no significant impacts"},
      {"measurement": "increase of AUC0-∞ by food intake", "setting": "[1]; [9]", "result": "52.15∼58.20%"},
      {"measurement": "increase of Cmax by food intake", "setting": "[1]; [9]", "result": "77.09∼93.45%"},
      {"measurement": "increase of AUC0-∞, high-fat meal vs standard meal", "setting": "[1]; single 20 mg tablet, P > 0.05", "result": 3.97, "unit": "%"},
      {"measurement": "increase of Cmax, high-fat meal vs standard meal", "setting": "[1]; single 20 mg tablet, P > 0.05", "result": 9.24, "unit": "%"},
      {"measurement": "CL/F", "setting": "[1]; single oral 20 mg, fasted, N = 18, mean (SD)", "result": "10.8 (2.5) L/h"},
      {"measurement": "CL/F", "setting": "[1]; single oral 20 mg, fed with high-fat, high-calorie meal, N = 18, mean (SD)", "result": "6.8 (1.5) L/h"},
      {"measurement": "CL/F", "setting": "[1]; single oral 20 mg, fed with standard meal, N = 18, mean (SD)", "result": "7.1 (1.6) L/h"},
      {"measurement": "solubility", "setting": "[2]; 95% ethanol", "result": "practically insoluble"},
      {"measurement": "solubility", "setting": "[2]; N,N-dimethylacetamide (DMA)", "result": "soluble"},
      {"measurement": "solubility", "setting": "[2]; acetone", "result": "practically insoluble"},
      {"measurement": "solubility", "setting": "[2]; acetonitrile", "result": "practically insoluble"},
      {"measurement": "solubility", "setting": "[2]; dichloromethane", "result": "practically insoluble"},
      {"measurement": "solubility", "setting": "[2]; dimethyl sulfoxide (DMSO)", "result": "readily soluble"},
      {"measurement": "solubility", "setting": "[2]; methanol", "result": "practically insoluble"},
      {"measurement": "solubility", "setting": "[2]; water", "result": "practically insoluble"},
      {"measurement": "affinity and antagonistic activity for the 5-HT transporter", "setting": "[3]", "result": "at the nanomolar level"},
      {"measurement": "5-HT1A receptor activity relative to Vortioxetine", "setting": "[4]", "result": "comparable activity"},
      {"measurement": "activity in agonizing 5-HT1A receptor relative to HEC61139 (Vilazodone)", "setting": "[4]", "result": "slightly weaker activity"},
      {"measurement": "duration of immobility", "setting": "[5]", "result": "significantly reduce"}
    ]}
  ]
}
